The values that follow come from PubChem BioAssay (NCI).

Several values for one entry are separate records, joined by “and”; a condition that tells them apart may be missing. Identical values can stand only once.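 Growth conditions: 96-well plates. Treatment: test compound, 48 hours, 5 concentrations. Analysis: linear interpolation between bracketing concentrations; unreached endpoints set to highest concentration. At the GI50, growth is halved. Definition used: TGI = concentration required for complete inhibition of growth.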 Some results are limits rather than exact numbers.

Experiment in all cases: NCI tumour cell line growth inhibition, 48 h
For test [1], the system named is MDA-N.
Test [2] relates to DLD-1 colon.
The test system of test [3] is DMS 114 small cell lung.
Test [4] concerns DMS 273 small cell lung.
Test [5] relates to M19-MEL melanoma.
For test [6], the system named is SNB-78 CNS.
Test [7] concerns XF 498 CNS.
Test [8] has as its system HOP-18 NSCLC.
The test system of test [9] is RXF-631 renal.
Test [10] concerns P388/ADR leukemia.
In test [11] the test system is SN12K1 renal.

With `CN1CCC(n2[nH]c(-c3ccccc3)c(Cc3ccccc3)c2=O)CC1`, in [1], the TGI is above 100 µM.
Regarding `CC1CC2(CCC1OCc1ccccc1)OCCO2` (configuration not stated), the TGI in test [2], in [3], in test [4], in [5], in test [6] and in [7] was above 100 µM each time.
On to `COc1ccc(C(=O)CC(c2ccc(OC)c(OC)c2)c2c(O)c3ccccc3oc2=O)cc1OC` (configuration not stated), for which the TGI in test [1] was above 100 µM.
`CCC[CH2][Sn]1([CH2]CCC)[O]C(=O)CN=Cc2ccccc2[O]1`: the GI50 was 568 nM in [2]; 134 nM in test [3]; 864 nM in test [4]; 337 nM in test [8]; 249 nM in [5]; 182 nM in test [9]. Further, the GI50 is 232 nM in test [6] and 137 nM in [7]. Further, the TGI in test [2] is above 100 µM; in test [3], 0.295 µM; in [4], 2.12 µM; in test [8] it was 1.36 µM; in test [5], 1.15 µM; in test [9], 0.324 µM. Besides, the TGI in test [6] was 1.34 µM; in [7], 0.282 µM.
In the case of `O=CN1CCN(C=S)CC1`, the TGI in test [2], in [3], in test [4], in [5], in test [9] and in test [6] was above 100 µM throughout. The molecule also displayed a TGI in test [7] above 100 µM.
Consider `NC(=O)c1c2c(cc3c(=O)c4ccccc4[nH]c13)CCCC2`, for which the TGI in test [2], in test [3], in [4], in [8], in test [5] and in test [9] was above 100 µM each time. Further, the TGI in test [7] was above 100 µM.
The molecule `CC[C@@]1(O)C(=O)OCc2c1cc1n(c2=O)Cc2cc3c(NC(=O)CN)cccc3nc2-1` came in with a TGI in test [1] of 46.7 µM.
The same measure, in the same setting: then `O=C(NC1(C(=O)O)CC1c1ccccc1)c1ccccc1` (configuration not stated), with above 100 µM.
Molecule `CN(C)S(=O)(=O)c1ccc(Nc2ccc(O)c3c2C(=O)c2c([N+](=O)[O-])ccc(O)c2C3=O)cc1` had a TGI in [1] above 100 µM.
Consider `C=CCN(CC=C)CC(C(C)=O)C(c1ccccc1)c1c(O)c2ccccc2oc1=O` (configuration not stated), for which the TGI in test [2], in test [3], in test [4], in [5], in test [6] and in [7] was above 100 µM throughout.
In the case of `NC1=C(Cl)C(=O)c2ccccc2C1=O`, the TGI in test [2] was found to be 37.9 µM; in [3], 13.4 µM; in [4], 18.9 µM; in test [8] it was 22 µM; in [5], 1.76 µM; in test [1], 3.19 µM. In addition, the TGI in test [6] was above 63.3 µM; in test [7] it was 24.5 µM.
In test [1], `N#C[C@H]1Nc2ccccc2[C@@H](O)C1O` (some centres not stated) returned a TGI above 100 µM.
As to `CC(=O)O[C@H]1CC[C@@]2(C)C(=CC[C@@H]3C2CC[C@]2(C)Nc4[nH]ncc4CC32)C1` (some centres not stated), the TGI is 93.8 µM in test [2]; 34.2 µM in test [3]; 31.8 µM in test [4]; 60.1 µM in test [5]; 34.7 µM in [9]; above 100 µM in [6]. The TGI in test [7] was 34.2 µM.
For `CC1(C)N[P+]2(Nc3ccccc3O2)OC1=O` (configuration not stated), the TGI in test [1] was found to be 38.7 µM.
Turning to `COC(=O)[C@]12CC=C3O[C@@H]4OC5(CCCCC5)O[C@@H]4[C@H]3C1C(=O)C=CC2=O` (some centres not stated), the TGI in [2] was 29.9 µM; in test [3], 33.7 µM; in test [4] it was 34.3 µM; in test [8] it was 32.6 µM; in test [5], 30.9 µM; in test [1], 33.6 µM. Besides, the TGI in test [10] turned out to be 10.5 µM; in test [11] it was 31.4 µM; in test [6], 37.2 µM; in test [7], 20 µM.
On to `Cc1c(O)c(=O)ccn1CCO`, for which the TGI in [2], in [3], in [8], in test [5], in test [6] and in [7] was above 100 µM throughout.
`COc1ccccc1NC(=O)CC(=O)NNCC(=O)Nc1nnc(-c2ccccc2)o1`: the TGI in test [2], in test [3], in [4], in test [5], in [9] and in [6] was above 100 µM each time. The TGI in test [7] is above 100 µM.
Regarding `Cc1cc(NC(=O)NC(=O)c2ccccc2NC(=O)CN)ccc1Oc1ncc(Br)cn1`, the TGI is 4.62 µM in [2]; 75 µM in test [3]; 38.1 µM in test [4]; 1.1 µM and 0.178 µM in test [1]; 75 µM in [7]. Moreover, the GI50 in [1] was 27.1 nM.
`CC(C)=CC1CC(C)C2(CCC3(C)CC4C(C(=O)CC4(C)O)/C(C=O)=C\CC32)O1` (configuration not stated) yielded a TGI in test [1] of 0.258 µM.
For `COC(=O)C1=Cc2c(cc(OC)c(OC)c2OC)[C@H](c2ccc(OC)c(OC)c2OC)C1C(=O)OC` (some centres not stated), the TGI in [2], in [3], in [4], in test [5], in test [9] and in test [6] was above 100 µM each time.
Consider `CO/C(=N\N=C\c1cccc(C(F)(F)F)c1)c1ccncc1`, for which, in [1], the GI50 is 3250 nM; the TGI is 5.17 µM and 32.5 µM.
For `O=C(O)CCCNS(=O)(=O)c1ccc2ccccc2c1`, the TGI in test [2], in [4], in test [8], in [5], in test [9] and in [7] was above 100 µM throughout.
Take `CCOC(=O)C(=O)Nc1ccc(Cl)c(C(F)(F)F)c1`: the TGI in test [2], in [3], in [4], in [8], in [5] and in test [9] was above 100 µM in each case. Moreover, the TGI in [6] is above 100 µM.
`O=[N+]([O-])c1ccc(N=Nc2c(O)[nH]c3ccccc23)cc1`: the TGI in test [1] was above 100 µM.
Turning to `COc1ccc2c(c1)CCCC1C3=NCCC3(C)CSC21` (configuration not stated), the TGI in test [3], in test [4], in test [8], in test [5], in test [6] and in [7] was above 100 µM throughout.
As for `CCOC(=O)c1cnc2cc3cccccc3n2c1=O`, the TGI in test [2], in test [3], in test [4] and in test [6] was above 100 µM throughout.
`CCCCCCCCCCCCCCCCn1cc[n+](Cc2ccccc2)c1C`: in [1], the GI50 is 328 nM and the TGI was determined as 1.32 µM.
As to `O=C(O)c1ccc(C2C3C=CC(C3)C2[N+](=O)[O-])cc1` (configuration not stated), the TGI in test [2], in [3], in test [4], in test [5], in test [9] and in test [6] was above 100 µM in each case. Also, the TGI in test [7] was above 100 µM.
With `CC(=O)OC12CC(C)C3(O)C4C=C(C)C(=O)[C@@]4(O)CC(CO)=C[C@H]3C1C2(C)C` (some centres not stated), in test [1], the GI50 is 239 nM.
On to `Clc1cc(Cl)cc(Nc2nc3ccccc3nc2-c2cccs2)c1`, for which the TGI was above 100 µM in test [2]; 27.2 µM in test [4]; 88.8 µM in test [8]; 88.2 µM in test [5]; 31.8 µM in test [9]; above 100 µM in [6]. Besides, the TGI in [7] stood at 73.2 µM.
Take `CC1=CC2CC(C)C1(C)CCc1ccoc12` (configuration not stated): the TGI in [2], in test [3], in test [4], in [8], in [5] and in test [9] was above 100 µM in each case. Also, the TGI in [6] and in [7] was above 100 µM throughout.
For the molecule `Cc1cc2c(cc1Br)C1(C)CCC(C)C1(C)O2` (configuration not stated), the TGI in [2] is above 100 µM; in test [3] it was 52 µM; in test [4], 50.4 µM; in test [8], above 100 µM; in [5], 70.1 µM; in [6], above 100 µM. This molecule also gave a TGI in test [7] of 50.6 µM.
For the molecule `COc1ccc(C(O)/C(=C/n2ccnc2)c2ccccc2)cc1OC` (configuration not stated), the TGI in [2], in test [3], in [4], in test [8], in test [5] and in test [9] was above 100 µM throughout. In [7], this molecule showed a TGI above 100 µM.
For `CCOC(=O)[C@H]1Nc2ccc(Cl)cc2[C@H]2c3ccccc3O[C@H]21`, the TGI in [2], in test [3], in [4], in test [8], in test [5] and in test [9] was above 100 µM each time. In addition, the TGI in [6] and in test [7] was above 100 µM throughout.
For the molecule `CN(CCN(C)C(=O)CCOS(C)(=O)=O)C(=O)CCOS(C)(=O)=O`, the TGI in test [2], in test [3], in test [4], in test [8], in test [6] and in test [7] was above 100 µM in each case.
As to `Cn1c(=O)oc2cc(C3CCC(=O)N3Cc3ccc(Cl)cc3)ccc21` (configuration not stated), the TGI in test [2], in [3], in test [4], in test [8], in test [5] and in test [6] was above 100 µM each time. Moreover, the TGI in test [7] is above 100 µM.
As for `COc1cc2c(c(OC)c1OC)-c1ccc(SC)c(=O)cc1C(CC(=O)Oc1cccc(C#N)c1)C2` (configuration not stated), the TGI in test [2] was above 100 µM; in test [4], above 100 µM; in test [8] it was above 100 µM; in test [5], above 100 µM; in test [6], above 100 µM; in test [7] it was 2.23 µM.
